Test results from doi:10.1101/2025.11.04.686469, “Discovery of Host-Directed Small Molecules with Broad Anti-Leishmanial Efficacy” (bioRxiv, 2025).

Tests used:
[1] = system: intracellular L. donovani amastigotes; assay: Luminescent-based evaluation of intracellular anti-leishmanial activity in THP-1 macrophages; format: cell-based, Leishmania donovani; conditions: intracellular Leishmania donovani in THP1 macrophages, luminescence assay (Supplemental Table 2); read-out: Lum IC50
Procedure, shortened: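 PMA-differentiated THP-1 macrophages (150 nM, 72 h) were infected 18 h with firefly luciferase-expressing L. donovani LV82 promastigotes, then washed. Infected cells were treated with compounds at 0.1-10 μM for 72 h. Surviving intracellular amastigotes were quantified by firefly luciferase luminescence after cell lysis and 10 min substrate incubation at room temperature.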

[2] = system: THP-1 macrophages; assay: Effect of compounds on host cell viability (MTT); format: cell-based; conditions: read-out: 24h LC50; THP1 macrophages, 24-hour incubation, MTT assay (Supplemental Table 2)
Procedure, shortened: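 THP-1 cells were differentiated with 150 nM PMA for 72 h, then exposed to compounds at 1–50 μM for 24 h; selected compounds were also run at 1–300 μM for 72 h. MTT at 0.5 mg/mL was added for 2 h at 37 °C, and formazan absorbance was read at 560 nm minus 670 nm.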

SMILES	IC50 [1] [µM]	CC50 [2] [µM]
NC1CCN(c2ccc(-n3nc(C(F)(F)F)cc3-c3ccc(F)cc3)cc2)C1 (stereo not drawn) [Compound 248]	2.6	14.4
FC(F)(F)c1cc(-c2cccnc2)n(-c2ccc(Br)cc2)n1 [Compound 249]	> 10	50
FC(F)(F)c1cc(-c2cccnc2)n(-c2ccc(NC3CCNC3)cc2)n1 (stereo not drawn) [Compound 250]	> 10	> 50
COc1ccc(-c2cc(C(F)(F)F)nn2-c2ccc(Br)cc2)cc1OC [Compound 251]	> 10	> 50
FC(F)(F)c1ccc(-c2cc(C(F)(F)F)nn2-c2ccc(NC3CCNC3)cc2)cc1 (stereo not drawn) [Compound 252]	2.3	14.4
FC(F)(F)c1cc(-c2ccccc2C(F)(F)F)n(-c2ccc(Br)cc2)n1 [Compound 255]	> 10	> 50
COc1ccc(-c2cc(C(F)(F)F)nn2-c2ccc(NC3CCNC3)cc2)cc1OC (stereo not drawn) [Compound 260]	4.3	13.9
FC(F)(F)c1cc(C2CC2)n(-c2ccc(NC3CCNC3)cc2)n1 (stereo not drawn) [Compound 272]	5.6	17.2
FC(F)(F)c1cc(-c2ccco2)n(-c2ccc(NC3CCNC3)cc2)n1 (stereo not drawn) [Compound 273]	4.9	15.6
NC1CCN(c2ccc(-n3nc(C(F)F)cc3-c3ccc(-c4ccc(C(F)(F)F)cc4)cc3)cc2)C1 (stereo not drawn) [Compound 281]	2	14.3
FC(F)(F)c1ccc(-c2nc(C(F)(F)F)cn2-c2ccc(NC3CCNC3)cc2)cc1 (stereo not drawn) [Compound 296]	3	12.9
FC(F)(F)c1cc(C2CCCCC2)n(-c2ccc(NC3CCNC3)cc2)n1 (stereo not drawn) [Compound 312]	4.8	25.5
FC(F)(F)c1cc(C(F)(F)F)n(-c2ccc(NC3CCNC3)cc2)n1 (stereo not drawn) [Compound 314]	2.7	21.9
CC(C)c1cc(C(F)(F)F)nn1-c1ccc(NC2CCNC2)cc1 (stereo not drawn) [Compound 315]	3.3	25.1
CCc1cc(C(F)(F)F)nn1-c1ccc(NC2CCNC2)cc1 (stereo not drawn) [Compound 318]	1.8	27
FC(F)(F)c1cc(C2CCCCC2)n(-c2ccc(NC3CCN(Cc4ccccc4)CC3)cc2)n1 [Compound 321]	5.1	23.9
N#Cc1ccc(CN2CCC(Nc3ccc(-n4nc(C(F)(F)F)cc4C4CCCCC4)cc3)CC2)cc1 [Compound 323]	8.9	28.3
NC1CCN(c2ccc(-n3nc(C(F)(F)F)cc3C3CCCCC3)cc2)CC1 [Compound 324]	1.9	27.5
FC(F)(F)c1cn(-c2ccc(OC3CCNC3)cc2)c(-c2ccc(-c3ccccc3)cc2)n1 (stereo not drawn) [Compound 328]	2.6	11.1
CC(C)(C)c1nc(C(F)(F)F)cn1-c1ccc(NC2CCNC2)cc1 (stereo not drawn) [Compound 330]	6.2	> 50
NCC(=O)Nc1ccc(-n2nc(C(F)(F)F)c3c2CCCC3)cc1 [Compound 331]	9.9	47
O=C1CN(c2ccc(-n3cc(C(F)(F)F)nc3-c3ccc(C(F)(F)F)cc3)cc2)CCN1 [Compound 332]	8	31.2
FC(F)(F)c1cc(C2CCCCC2)n(-c2ccc(N3CCC(NCc4ccccc4)CC3)cc2)n1 [Compound 336]	2.4	15.9
Fc1cccc(CNC2CCN(c3ccc(-n4nc(C(F)(F)F)cc4C4CCCCC4)cc3)CC2)c1 [Compound 337]	3.5	32.1
FC(F)(F)c1cc(C2CCCCC2)n(-c2ccc(NC3CCNCC3)cc2)n1 [Compound 339]	1.7	18.2
NCC(=O)Nc1ccc(-n2nc(C(F)(F)F)cc2C2CCCCC2)cc1 [Compound 341]	4	26.5
O=C(CNCc1ccccc1)Nc1ccc(-n2nc(C(F)(F)F)cc2C2CCCCC2)cc1 [Compound 353]	4.2	17.5

SMILES	IC50 [1] [µM]	CC50 [2] [µM]
O=C(CNCc1ccc(O)cc1)Nc1ccc(-n2nc(C(F)(F)F)cc2C2CCCCC2)cc1 [Compound 355]	2	21.2
FC(F)(F)c1cc(C2CCCCC2)n(-c2ccc(NC3CCN(Cc4ccccc4)C3)cc2)n1 (stereo not drawn) [Compound 356]	2	15.5
Fc1cccc(CN2CCC(Nc3ccc(-n4nc(C(F)(F)F)cc4C4CCCCC4)cc3)C2)c1 (stereo not drawn) [Compound 357]	1.2	13.1
Oc1ccc(CNC2CCN(c3ccc(-n4nc(C(F)(F)F)cc4C4CCCCC4)cc3)C2)cc1 (stereo not drawn) [Compound 362]	2.2	20
FC(F)(F)c1cc(C2CCCCC2)n(-c2ccc(N3CCC(NCc4ccccc4)C3)cc2)n1 (stereo not drawn) [Compound 364]	6.8	31.1
Oc1ccc(CN2CCC(Nc3ccc(-n4nc(C(F)(F)F)cc4C4CCCCC4)cc3)C2)cc1 (stereo not drawn) [Compound 368]	1.6	12.1
FC(F)(F)c1cc(C2CCCCC2)n(-c2ccc(OC3CCNCC3)cc2)n1 [Compound 370]	2.6	19.5
FC(F)(F)c1cc(C2CCCCC2)n(-c2ccc(OC3CCN(Cc4ccccc4)CC3)cc2)n1 [Compound 371]	8.9	> 50
N#Cc1ccc(CN2CCC(Oc3ccc(-n4nc(C(F)(F)F)cc4C4CCCCC4)cc3)CC2)cc1 [Compound 373]	7	> 50
FC(F)(F)c1cc(C2CCCCC2)n(-c2ccc(OC3CCNC3)cc2)n1 (stereo not drawn) [Compound 375]	6.3	12.3
Oc1ccc(CN2CCC(Oc3ccc(-n4nc(C(F)(F)F)cc4C4CCCCC4)cc3)C2)cc1 (stereo not drawn) [Compound 377]	8.3	14.6
FC(F)(F)c1cc(C2CCCCC2)n(-c2ccc(NC3CCN(Cc4ccccc4)CC3)cc2)n1 [Compound 381]	6.2	12.4
Oc1ccc(CN2CCC(Nc3ccc(-n4nc(C(F)(F)F)cc4C4CCCCC4)cc3)CC2)cc1 [Compound 392]	4.7	25.9
FC(F)(F)c1cc(C2CCCCC2)n(-c2ccc(NC3CNC3)cc2)n1 [Compound 394]	5.5	30.9
FC(F)(F)c1cc(C2CCCCC2)n(-c2ccc(NC3CN(Cc4ccccc4)C3)cc2)n1 [Compound 395]	7.6	37.4
Fc1cccc(CN2CC(Nc3ccc(-n4nc(C(F)(F)F)cc4C4CCCCC4)cc3)C2)c1 [Compound 396]	6.1	23.3
N#Cc1ccc(CN2CC(Nc3ccc(-n4nc(C(F)(F)F)cc4C4CCCCC4)cc3)C2)cc1 [Compound 397]	8.1	27.6
NCC(=O)Nc1ccc(-n2cc(C(F)(F)F)nc2-c2ccc(C(F)(F)F)cc2)cc1 [Compound 409]	8.8	35.2
NCCN1CCC(Oc2ccc(-n3nc(C(F)(F)F)cc3C3CCCCC3)cc2)CC1 [Compound 416]	1.3	18.2
CC(=O)NCCNC1CCN(c2ccc(-n3nc(C(F)(F)F)cc3C3CCCCC3)cc2)CC1 [Compound 419]	2.7	21.6
NCCCNC1CCN(c2ccc(-n3nc(C(F)(F)F)cc3C3CCCCC3)cc2)CC1 [Compound 420]	1	7
CC(=O)NCCCNC1CCN(c2ccc(-n3nc(C(F)(F)F)cc3C3CCCCC3)cc2)CC1 [Compound 421]	1.5	19
NCCCCCN1CCC(Oc2ccc(-n3nc(C(F)(F)F)cc3C3CCCCC3)cc2)CC1 [Compound 422]	2.5	6.1
NCCOCCN1CCC(Oc2ccc(-n3nc(C(F)(F)F)cc3C3CCCCC3)cc2)CC1 [Compound 423]	6	3.4
NCCCCN1CCC(Oc2ccc(-n3nc(C(F)(F)F)cc3C3CCCCC3)cc2)CC1 [Compound 424]	2.4	6.5
NCCCN1CCC(Oc2ccc(-n3nc(C(F)(F)F)cc3C3CCCCC3)cc2)CC1 [Compound 425]	2.2	5.5
CC(=O)NCCOCCN1CCC(Oc2ccc(-n3nc(C(F)(F)F)cc3C3CCCCC3)cc2)CC1 [Compound 427]	6.1	29.5
